In this assay the test system is c-myc in 22RV-1 cells. The assay can be described thus: Human c-myc ELISA assay. Conditions: Homo sapiens; for Emax: 22Rv1, 18 h, read-out: Degradation of BRD4: Maximum inhibition (%) c-Myc ELISA in 22RV1 cells; for DC50: 22Rv1, read-out: Degradation of BRD4: DC50 (uM) c-Myc ELISA in 22RV1 cells. The assay is classed as cell-based. Put shortly:
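c-myc levels measured by ELISA in RIPA lysates of 22RV-1 cells, calibrated with a 333-0 pg/ml standard curve. Lysates came from cells exposed for 18 h to an 8-point, 1:3 dose series starting at 300 nM or 1 μM final in 0.1% DMSO. Suppression potency given as DC50.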

SMILES strings stand for the structures.

Consider `Cc1ncsc1-c1ccc([C@H](C)NC(=O)[C@@H]2C[C@@H](O)CN2C(=O)[C@@H](NC(=O)CN2CCC(O[C@H]3C[C@H](NC(=O)c4ccc5c6ncc(-c7c(C)noc7C)cc6n([C@@H](c6ccccc6)C6CCOCC6)c5c4)C3)CC2)C(C)(C)C)cc1` [Example 366, (2S,4R)-1-[(2S)-3,3-dimethyl-2-(2-{4-[(1,3-trans)-3-[3-(dimethyl-1,2-oxazol-4-yl)-5-[(R)-oxan-4-yl(phenyl)methyl]-5H-pyrido[3,2-b]indole-7-amido]cyclobutoxy]piperidin-1-yl}acetamido)butanoyl]-4-hydroxy-N-[(1S)-1-[4-(4-methyl-1,3-thiazol-5-yl)phenyl]ethyl]pyrrolidine-2-carboxamide], for which the Emax worked out at 100% and the DC50 was less than 0.01 µM.
For `Cc1ncsc1-c1ccc([C@H](C)NC(=O)[C@@H]2C[C@@H](O)CN2C(=O)[C@@H](C(C)C)n2cc(-c3cc(O[C@H]4C[C@H](NC(=O)C[C@@H]5N=C(c6ccc(Cl)cc6)c6c(sc(C)c6C)-n6c(C)nnc65)C4)ccn3)cn2)cc1` [Example 305], in that order: 6.7% and more than 1 µM.
For `Cc1ncsc1-c1ccc(CNC(=O)[C@@H]2C[C@H](O)CN2C(=O)[C@@H](NC(=O)COCCCOCCCOc2ccc(NC(=O)C[C@@H]3N=C(c4ccc(Cl)cc4)c4c(sc(C)c4C)-n4c(C)nnc43)cc2)C(C)(C)C)cc1` [Example 18], in that order: 39% and more than 1 µM.
For `Cc1sc2c(c1C)C(c1ccc(Cl)cc1)=N[C@@H](CC(=O)N[C@H]1C[C@@H](Oc3cc(-c4cnn([C@H](C(=O)N5C[C@H](O)C[C@H]5C(=O)N[C@@H](C)c5ccc(-n6ccnc6C)cc5)C(C)C)c4)ccn3)C1)c1nnc(C)n1-2` [Example 289], in that order: 93.8% and 0.1 to 1 µM.
With `Cc1sc2c(c1C)C(c1ccc(Cl)cc1)=N[C@@H](CC(=O)N[C@H]1C[C@@H](Oc3cc(-c4cnn([C@@H](C(=O)N5C[C@H](O)C[C@H]5C(=O)N[C@@H](C)c5ccc(-c6nccn6C)cc5)C(C)C)c4)ccn3)C1)c1nnc(C)n1-2` [Example 292], the Emax was 10% and the half-maximal degradation concentration (DC50) is more than 1 µM.
For `Cc1ncsc1-c1ccc([C@H](C)NC(=O)[C@@H]2C[C@@H](O)CN2C(=O)[C@H](C(C)C)n2cc(-c3cc(O[C@H]4C[C@@H](NC(=O)C[C@@H]5N=C(c6ccc(Cl)cc6)c6c(sc(C)c6C)-n6c(C)nnc65)C4)ccn3)cn2)cc1` [Example 302], in that order: 92% and 0.01 to 0.1 µM.
`Cc1ncsc1-c1ccc(CNC(=O)[C@@H]2C[C@@H](O)CN2C(=O)[C@@H](NC(=O)COCCCOCCOc2ccc3c(c2)c2c(C(N)=O)cc(-c4c(C)noc4C)cc2n3Cc2ccccc2)C(C)(C)C)cc1` [Example 116, 9-benzyl-2-(dimethyl-1,2-oxazol-4-yl)-6-{2-[3-({[(2S)-1-[(2S,4R)-4-hydroxy-2-({[4-(4-methyl-1,3-thiazol-5-yl)phenyl]methyl}carbamoyl)pyrrolidin-1-yl]-3,3-dimethyl-1-oxobutan-2-yl]carbamoyl}methoxy)propoxy]ethoxy}-9H-carbazole-4-carboxamide]: the Emax is 100% and the DC50 was in the range of 0.01 to 0.1 µM.
`Cc1ncsc1-c1ccc(CNC(=O)[C@@H]2C[C@@H](O)CN2C(=O)[C@@H](c2cnn(CCCOCCNC(=O)C[C@@H]3N=C(c4ccc(Cl)cc4)c4c(sc(C)c4C)-n4c(C)nnc43)c2)C(C)C)cc1` [Example 144]: the Emax came to 73% and the 50% degradation concentration (DC50) fell in the range of 0.1 to 1 µM.
Consider `Cc1ncoc1-c1ccc(CNC(=O)[C@@H]2C[C@@H](O)CN2C(=O)[C@@H](C(C)C)n2cc(-c3ccnc(O[C@H]4C[C@@H](NC(=O)C[C@@H]5N=C(c6ccc(Cl)cc6)c6c(sc(C)c6C)-n6c(C)nnc65)C4)c3)cn2)cc1` [Example 294], for which the Emax stood at 43.4% and the DC50 was more than 1 µM.
For `Cc1ncsc1-c1ccc([C@H](C)NC(=O)[C@@H]2C[C@@H](O)CN2C(=O)[C@@H](C(C)C)n2cc(-c3ccnc(N4CC(NC(=O)C[C@@H]5N=C(c6ccc(Cl)cc6)c6c(sc(C)c6C)-n6c(C)nnc65)C4)c3)cn2)cc1` [Example 247], in that order: 24.1% and more than 1 µM.
For `Cc1ncsc1-c1ccc(CNC(=O)[C@@H]2C[C@@H](O)CN2C(=O)[C@@H](C(C)C)n2cc(-c3cccc(O[C@H](C)CNC(=O)C[C@@H]4N=C(c5ccc(Cl)cc5)c5c(sc(C)c5C)-n5c(C)nnc54)c3)cn2)cc1` [Example 231], in that order: 39.5% and more than 1 µM.
As for `Cc1ncsc1-c1ccc(CNC(=O)[C@@H]2C[C@@H](O)CN2C(=O)[C@@H](NC(=O)Cc2cccc(CCCCNC(=O)C[C@@H]3N=C(c4ccc(Cl)cc4)c4c(sc(C)c4C)-n4c(C)nnc43)c2)C(C)(C)C)cc1` [Example 70, (2S,4R)-1-[(2S)-2-{2-[3-(4-{2-[(9S)-7-(4-chlorophenyl)-4,5,13-trimethyl-3-thia-1,8,11,12-tetraazatricyclo[8.3.0.0^2,^6]trideca-2(6),4,7,10,12-pentaen-9-yl]acetamido}butyl)phenyl]acetamido}-3,3-dimethylbutanoyl]-4-hydroxy-N-{[4-(4-methyl-1,3-thiazol-5-yl)phenyl]methyl}pyrrolidine-2-carboxamide], the Emax is 88.8% and the 50% degradation concentration (DC50) lay in the range of 0.01 to 0.1 µM.
For `Cc1ncsc1-c1ccc(CNC(=O)[C@@H]2C[C@@H](O)CN2C(=O)[C@H](C(C)C)N2Cc3ccccc3C2=O)c(OCCOCCOCCCOCCOCCNC(=O)C[C@@H]2N=C(c3ccc(Cl)cc3)c3c(sc(C)c3C)-n3c(C)nnc32)c1` [Example 5], in that order: 25% and more than 1 µM.
For `Cc1ncsc1-c1ccc([C@H](C)NC(=O)[C@@H]2C[C@@H](O)CN2C(=O)[C@@H](NC(=O)CN2CCN(C3CC4(C3)CN(C(=O)C[C@@H]3N=C(c5ccc(Cl)cc5)c5c(sc(C)c5C)-n5c(C)nnc53)C4)[C@H](C)C2)C(C)(C)C)cc1` [Example 355], in that order: 100% and 0.01 to 0.1 µM.
For `Cc1ncsc1-c1ccc([C@H](C)NC(=O)[C@@H]2C[C@@H](O)CN2C(=O)[C@@H](NC(=O)COc2cc(F)cc(O[C@H]3C[C@H](NC(=O)C[C@@H]4N=C(c5ccc(Cl)cc5)c5c(sc(C)c5C)-n5c(C)nnc54)C3)c2)C(C)(C)C)cc1` [Example 215], in that order: 98% and less than 0.01 µM.
In the case of `Cc1ncsc1-c1ccc([C@H](C)NC(=O)[C@@H]2C[C@@H](O)CN2C(=O)[C@@H](NC(=O)CN2CCN(C3CC4(C3)CN(C(=O)C[C@@H]3N=C(c5ccc(Cl)cc5)c5c(sc(C)c5C)-n5c(C)nnc53)C4)C[C@H]2C)C(C)(C)C)cc1` [Example 356], the Emax stood at 100% and the half-maximal degradation concentration (DC50) lay in the range of 0.01 to 0.1 µM.
For `Cc1ncsc1-c1ccc(CNC(=O)[C@@H]2C[C@@H](O)CN2C(=O)[C@@H](NC(=O)COCCOCCOCCCCOc2ccc(NC(=O)C[C@@H]3N=C(c4ccc(Cl)cc4)c4c(sc(C)c4C)-n4c(C)nnc43)cc2)C(C)(C)C)cc1` [Example 14], in that order: 100% and 0.01 to 0.1 µM.
For `Cc1ncsc1-c1ccc([C@H](C)NC(=O)[C@@H]2C[C@@H](O)CN2C(=O)[C@@H](NC(=O)/C=C/c2ccc(F)c(O[C@H](C)CNC(=O)C[C@@H]3N=C(c4ccc(Cl)cc4)c4c(sc(C)c4C)-n4c(C)nnc43)c2)C(C)(C)C)cc1` [Example 161], in that order: 97% and less than 0.01 µM.

One may read the DC50 as the concentration at which degradation of the target reaches its halfway point.

The values above are taken from patent publication US11554171B2, “Compounds and methods for the targeted degradation of bromodomain-containing proteins” (Arvinas Operations, Inc., priority 2015, dated 2023).
